Target: human neprilysin (EC 3.4.24.11; NEP) (Homo sapiens (Human), UniProt P08473)
Experiment: In vitro enzyme inhibition assay at human NEP (fluorogenic peptide substrate)
Format: biochemical
Conditions: pKi values at human NEP, recombinant human NEP
How it was run: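 pKi derived from apparent Ki fitted as v=v0/[1+(I/K′)] to Ex320/Em405 fluorescence. Compounds (pM to 10 μM) sat with recombinant human enzyme 30 min at 37 °C before 10 μM fluorogenic Mca peptide was added in HEPES pH 7.5 buffer with 10 μM ZnSO4; 20 min reaction, acetic acid quench.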

Sequence of human neprilysin (EC 3.4.24.11; NEP) (P08473 52-750): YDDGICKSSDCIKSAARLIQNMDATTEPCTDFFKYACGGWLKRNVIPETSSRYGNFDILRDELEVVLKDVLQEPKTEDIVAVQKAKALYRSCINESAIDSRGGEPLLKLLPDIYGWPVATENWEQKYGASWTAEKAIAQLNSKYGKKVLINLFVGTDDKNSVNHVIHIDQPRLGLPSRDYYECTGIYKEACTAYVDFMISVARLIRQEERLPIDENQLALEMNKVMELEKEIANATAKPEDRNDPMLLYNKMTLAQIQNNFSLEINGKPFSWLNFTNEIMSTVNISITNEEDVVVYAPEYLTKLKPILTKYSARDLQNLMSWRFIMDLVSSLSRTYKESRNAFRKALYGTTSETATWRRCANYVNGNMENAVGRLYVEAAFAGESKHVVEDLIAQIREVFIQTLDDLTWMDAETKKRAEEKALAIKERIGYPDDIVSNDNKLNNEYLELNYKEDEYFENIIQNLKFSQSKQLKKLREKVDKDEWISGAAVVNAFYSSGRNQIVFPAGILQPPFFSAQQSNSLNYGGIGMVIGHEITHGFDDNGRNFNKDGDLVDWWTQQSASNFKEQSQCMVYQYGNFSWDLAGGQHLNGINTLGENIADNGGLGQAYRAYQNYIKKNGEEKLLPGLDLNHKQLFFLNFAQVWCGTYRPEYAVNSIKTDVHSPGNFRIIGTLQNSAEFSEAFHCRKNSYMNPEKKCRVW

Structure (SMILES) | Ki | pKi
O=C(N[C@H](Cc1ccc(-c2ccccc2)cc1)C[C@@H](O)C(=O)O)c1cnn[nH]1 [Example 10-2, (2R,4R)-5-Biphenyl-4-yl-2-hydroxy-4-[(3H-[1,2,3]triazole-4-carbonyl)amino]pentanoic acid] | 1.26 to 10 nM | –
O=C(N[C@H](Cc1ccc(-c2ccccc2)cc1)C[C@@H](O)C(=O)O)c1cc(-c2ccccc2Cl)on1 [Example 12-16, (2R,4R)-5-Biphenyl-4-yl-4-{[5-(2-chlorophenyl)-isoxazole-3-carbonyl]-amino}-2-hydroxy-pentanoic acid] | – | ≥9.0
COc1cccc(Cn2nc(C(=O)N[C@H](Cc3ccc(-c4ccccc4)cc3)CC(O)C(=O)O)cc2C(=O)O)c1 (stereo partly drawn) [Example 15-17, 5-((R)-1-Biphenyl-4-ylmethyl-3-carboxy-3-hydroxy-propylcarbamoyl)-2-(3-methoxy-benzyl)-2H-pyrazole-3-carboxylic acid] | 12.6 to 100 nM | –
O=C(N[C@H](Cc1ccc(-c2ccccc2)cc1)CC(O)C(=O)O)c1cc(C(=O)N2CCOCC2)n[nH]1 (stereo partly drawn) [Example 15-53, (R)-5-Biphenyl-4-yl-2-hydroxy-4-{[5-(morpholine-4-carbonyl)-2H-pyrazole-3-carbonyl]amino}pentanoic acid] | 1.26 to 10 nM | –
O=C(N[C@H](Cc1ccc(-c2ccccc2)cc1)C[C@@H](O)C(=O)O)c1cc(C(=O)N2CCC(O)CC2)n[nH]1 [Example 15-48, (2R,4R)-5-Biphenyl-4-yl-2-hydroxy-4-{[5-(4-hydroxypiperidine-1-carbonyl)-2H-pyrazole-3-carbonyl]-amino}-pentanoic acid] | – | ≥9.0
O=C(N[C@H](Cc1ccc(-c2ccccc2)cc1)C[C@@H](O)C(=O)O)c1cc(-c2ccc(Cl)c(Cl)c2)no1 [Example 12-12, (2R,4R)-5-Biphenyl-4-yl-4-{[3-(3,4-dichlorophenyl)-isoxazole-5-carbonyl]-amino}-2-hydroxy-pentanoic acid] | 1.26 to 10 nM | –
Cn1cc(-c2cc(C(=O)N[C@H](Cc3ccc(-c4ccccc4)cc3)C[C@@H](O)C(=O)O)on2)cn1 [Example 12-10, (2R,4R)-5-Biphenyl-4-yl-2-hydroxy-4-{[3-(1-methyl-1H-pyrazol-4-yl)-isoxazole-5-carbonyl]-amino}-pentanoic acid] | 1.26 to 10 nM | –
O=C(N[C@H](Cc1ccc(-c2ccccc2)cc1)C[C@@H](O)C(=O)O)c1n[nH]c(O)n1 [Example 10-9, (2R,4R)-5-Biphenyl-4-yl-2-hydroxy-4-[(5-hydroxy-1H-[1,2,4]triazole-3-carbonyl)amino]-pentanoic acid] | 1.26 to 10 nM | –
COc1ccc(-c2cc(C(=O)N[C@H](Cc3ccc(-c4ccccc4)cc3)C[C@@H](O)C(=O)O)no2)cc1 [Example 12-20, (2R,4R)-5-Biphenyl-4-yl-2-hydroxy-4-{[5-(4-methoxy-phenyl)-isoxazole-3-carbonyl]-amino}-pentanoic acid] | 1.26 to 10 nM | –
CC(C)CN(C)C(=O)c1cc(C(=O)N[C@H](Cc2ccc(-c3ccccc3)cc2)C[C@@H](O)C(=O)O)[nH]n1 [Example 15-67, (2R,4R)-5-Biphenyl-4-yl-2-hydroxy-4-{[5-(isobutylmethyl-carbamoyl)-2H-pyrazole-3-carbonyl]amino}-pentanoic acid] | – | ≥9.0
O=C(O)c1cnc(C(=O)N[C@H](Cc2ccc(-c3ccccc3)cc2)CC(O)C(=O)O)cn1 (stereo partly drawn) [Example 13-1, 5-((R)-1-Biphenyl-4-ylmethyl-3-carboxy-3-hydroxypropylcarbamoyl)-pyrazine-2-carboxylic acid] | 1.26 to 10 nM | –
O=C(N[C@H](Cc1ccc(-c2ccccc2)cc1)C[C@@H](O)C(=O)O)c1cn(O)nn1 [Example 10-3, (2R,4R)-5-Biphenyl-4-yl-2-hydroxy-4-[(1-hydroxy-1H-[1,2,3]triazole-4-carbonyl)-amino]-pentanoic acid] | – | ≥9.0
O=C(O)c1cc(C(=O)N[C@H](Cc2ccc(-c3ccccc3)cc2)C[C@@H](O)C(=O)O)on1 [Example 12-14, 5-((1R,3R)-1-Biphenyl-4-ylmethyl-3-carboxy-3-hydroxy-propylcarbamoyl)-isoxazole-3-carboxylic acid] | 12.6 to 100 nM | –

Second part, the molecule after the results:

Ki | pKi | Structure (SMILES)
12.6 to 100 nM | – | O=C(NCCc1cnc[nH]1)c1cc(C(=O)N[C@H](Cc2ccc(-c3ccccc3)cc2)C[C@@H](O)C(=O)O)[nH]n1 [Example 15-69, (2R,4R)-5-Biphenyl-4-yl-2-hydroxy-4-({5-[2-(3H-imidazol-4-yl)-ethylcarbamoyl]-2H-pyrazole-3-carbonyl}amino)pentanoic acid]
– | ≥9.0 | Cc1ccc(Cl)cc1-c1ccc(C[C@H](C[C@@H](O)C(=O)O)NC(=O)c2cn(O)nn2)cc1 [Example 19-12, (2R,4R)-5-(5′-Chloro-2′-methyl-biphenyl-4-yl)-2-hydroxy-4-[(1-hydroxy-1H-[1,2,3]triazole-4-carbonyl)-amino]-pentanoic acid]
– | ≥9.0 | COc1ccccc1-c1ccc(C[C@@H](C[C@H](O)C(=O)O)NC(=O)c2ccc3nnn(O)c3c2)cc1 [Example 23-3, (2S,4S)-2-Hydroxy-4-[(3-hydroxy-3H-benzotriazole-5-carbonyl)-amino]-5-(2′-methoxy-biphenyl-4-yl)-pentanoic acid]
12.6 to 100 nM | – | O=C(N[C@H](Cc1ccc(-c2ccccc2)cc1)CC(O)C(=O)O)c1cc(C2CC2)n[nH]1 (stereo partly drawn) [Example 15-72, (R)-5-Biphenyl-4-yl-4-[(5-cyclopropyl-2H-pyrazole-3-carbonyl)-amino]-2-hydroxy-pentanoic acid]
– | ≥9.0 | COc1cc(C(=O)N[C@H](Cc2ccc(-c3cccc(Cl)c3)cc2)C[C@@H](O)C(=O)O)on1 [Example 18-8, (2R,4R)-5-(3′-Chlorobiphenyl-4-yl)-2-hydroxy-4-[(3-methoxy-isoxazole-5-carbonyl)-amino]-pentanoic acid]
– | ≥9.0 | CC(C)Cc1cc(C(=O)N[C@H](Cc2ccc(-c3cccc(Cl)c3)cc2)C[C@@H](O)C(=O)O)on1 [Example 18-12, (2R,4R)-5-(3′-Chloro-biphenyl-4-yl)-2-hydroxy-4-[(3-isobutyl-isoxazole-5-carbonyl)-amino]-pentanoic acid]
1.26 to 10 nM | – | O=C(N[C@H](Cc1ccc(-c2cccc(Cl)c2)cc1)C[C@@H](O)C(=O)O)c1ccc(=O)n(Cc2ccccc2)n1 [Example 18-48, (2R,4R)-4-[(1-Benzyl-6-oxo-1,6-dihydro-pyridazine-3-carbonyl)-amino]-5-(3′-chlorobiphenyl-4-yl)-2-hydroxy-pentanoic acid]
– | ≥9.0 | O=C(N[C@H](Cc1ccc(-c2ccccc2)cc1)C[C@@H](O)C(=O)O)c1cc(-c2ccc(Cl)s2)n[nH]1 [Example 15-90, (2R,4R)-5-Biphenyl-4-yl-4-{[5-(5-chlorothiophen-2-yl)-2H-pyrazole-3-carbonyl]-amino}-2-hydroxy-pentanoic acid]
– | ≥9.0 | O=C(N[C@H](Cc1ccc(-c2cccc(Cl)c2)cc1)C[C@@H](O)C(=O)O)c1ccc2nnn(O)c2c1 [Example 18-3, (2R,4R)-5-(3′-Chlorobiphenyl-4-yl)-2-hydroxy-4-[(3-hydroxy-3H-benzotriazole-5-carbonyl)-amino]-pentanoic acid]
– | ≥9.0 | O=C(N[C@H](Cc1ccc(-c2cccc(Cl)c2)cc1)C[C@@H](O)C(=O)O)c1cc(-c2ccccn2)n[nH]1 [Example 18-23, (2R,4R)-5-(3′-Chlorobiphenyl-4-yl)-2-hydroxy-4-[(5-pyridin-2-yl-2H-pyrazole-3-carbonyl)-amino]-pentanoic acid]

From patent US10759813B2, “Neprilysin inhibitors” (THERAVANCE BIOPHARMA R&D IP, LLC, priority 2010, dated 2020)
